{"source": "paper PMC9569529", "about": "“Safe and Efficient Sigma1 Ligand: A Potential Drug Candidate for Multiple Sclerosis” (International Journal of Molecular Sciences, 2022)", "key": {"S. typhimurium TA1535": {"tested_on": "S. typhimurium TA1535", "conditions": "+S9; 7i 40 µg/plate; positive control 2-anthramine 0.5"}, "S. typhimurium TA100": {"tested_on": "S. typhimurium TA100", "conditions": "+S9; 7i 40 µg/plate; positive control 2-anthramine 0.5"}, "S. typhimurium TA1537": {"tested_on": "S. typhimurium TA1537", "experiment": "Ames test", "conditions": "7i 40 µg/plate"}, "S. typhimurium TA98": {"tested_on": "S. typhimurium TA98", "experiment": "Ames test", "conditions": "7i 40 µg/plate"}, "[1]": {"tested_on": "experimental autoimmune encephalomyelitis (EAE)", "set-up": "method as in PMID 25521311", "conditions": "BD-1047 alone; cited from earlier work"}, "TK6 cells": {"tested_on": "TK6 cells", "conditions": "human", "experimental": "The frequency of micronucleated (MN) cells was determined out of at least 2000 mononucleated cells."}, "S1R–BiP complex": {"tested_on": "S1R–BiP complex", "experiment": "S1R-BiP dissociation assay in CHO cells (co-IP, ELISA)", "type": "cell-based", "conditions": "for effect on S1R–BiP association: 10 µM, 30-min incubation", "method": "The activity of compound 7i was evaluated in regard to its ability to dissociate the S1R–BiP complex. The S1R–BiP dissociation assay was performed by Amylgen (Montferrier-sur-Lez, France) as described in [13, 79]. Briefly, CHO cells were treated with test compounds for 30 min (37 °C). Crosslinking was performed with dithiobis succinimidyl propionate (DSP; Thermoscientific, Waltham, MA, USA). Lysis was performed after incubation for 15 min on ice. After centrifugation, supernatants were incubated overnight (4 °C) with the S1R antibody (Abcam, Cambridge, UK). Lysates were incubated with Sepharose Protein-A (Invitrogen). After the first centrifugation, the pellet was resuspended in radioimmunoprecipitation assay (RIPA) buffer. After a second centrifugation, the pellet was resuspended in 2× sample buffer/bMCE buffer. After the third centrifugation, supernatants were analyzed for BiP immunoreactivity (SEC343Mu ELISA, USCNK Life Sciences, Wuhan, China)."}, "[2]": {"tested_on": "dizocilpine-induced learning deficits", "experiment": "Dizocilpine-induced learning deficits, Y-maze spontaneous alternation", "type": "in vivo, male Swiss mice", "conditions": "3 mg/kg i.p., alone", "method": "(§1) The activity of compound 7i was evaluated in regard to its ability to reverse dizocilpine-induced learning deficits. Two behavioral tests were performed by Amylgen (Montferrier-sur-Lez, France) on male Swiss mice (aged 6–9 weeks). All compounds (7i and controls) were intraperitoneally injected.\n(§2) Animals were tested for spontaneous alternation performance in the Y-maze, an index of spatial working memory. Made of grey polyvinylchloride, the Y-maze has an arm which is 40 cm long, 13 cm high and 3 cm wide at the bottom and 10 cm wide at the top, converging at an equal angle. Each mouse was placed at the end of one arm and allowed to move freely through the maze during an 8-min session. The series of arm entries, including possible returns into the same arm, were checked visually. An alternation was defined as entries into all three arms on consecutive occasions. The number of maximum alternations was therefore the total number of arm entries minus two, and the percentage of alternation was calculated as: (actual alternations/maximum alternations) × 100. Parameters included the percentage of alternation (memory index) and the total number of arm entries (exploration index). Animals showing extreme behavior (alternation < 20% or >90% or number of arm entries < 10) are usually discarded from the calculations. […] Step-through latency (the latency in time spent to enter the dark compartment) and the number of vocalizations were recorded. […] Step-through latency was recorded up to 300 s. When either the mouse entered the dark compartment or 300 s had elapsed (they were therefore manually placed in it), escape latency (latency to exit from the dark compartment) was recorded with a value of up to 300 s. […]"}, "[3]": {"tested_on": "dizocilpine-induced learning deficits", "experiment": "Dizocilpine-induced learning deficits, step-through passive avoidance", "type": "in vivo, male Swiss mice", "conditions": "3 mg/kg i.p., alone", "method": "as §1, §2"}, "QT interval": {"tested_on": "QT interval", "experiment": "ECG QT interval analysis under isoflurane anesthesia", "conditions": "for QT Interval Basal / QT Interval 3 min / QT Interval 6 min / QT Interval 10 min: in ms (unit assumed); for QT Interval 3 min: 3 min after injection; for QT Interval 6 min: 6 min after injection; for QT Interval 10 min: 10 min after injection", "experimental": "Four electrodes were inserted subcutaneously in the mouse limbs. Electrical signals were recorded with a Powerlab (Ad instruments) and analyzed with LabChart Pro software (v8.1.19).\nHeart rate and PR, QRS and QT intervals were measured as described in Supplementary Figure S3."}, "[4]": {"conditions": "+S9, positive control 2-anthramine 0.5"}}}
{"smiles": "Nc1ccc2cc3ccccc3cc2c1", "note": "[2-anthramine, reference compound]", "values": [{"measurement": "Ames TA1535 +S9 (Mean revertants/well per title)", "setting": "S. typhimurium TA1535", "result": 26.9}, {"measurement": "Ames TA100 +S9 (Mean revertants/well per title)", "setting": "S. typhimurium TA100", "result": 6.0}, {"measurement": "Ames TA1537 +S9 (Mean revertants/well per title)", "setting": "S. typhimurium TA1537; [4]", "result": 27.6}, {"measurement": "Ames TA98 +S9 (Mean revertants/well per title)", "setting": "S. typhimurium TA98; [4]", "result": 36.0}]}
{"smiles": "O=[N+]([O-])c1ccc2c(c1)Cc1ccccc1-2", "note": "[2-nitrofluorene, reference compound]", "values": [{"measurement": "Ames TA98 −S9 (Mean revertants/well per title)", "setting": "S. typhimurium TA98; −S9, positive control 2-nitrofluorene 0.5", "result": 23.1}]}
{"smiles": "Nc1c2ccccc2nc2ccccc12", "note": "[9-amino-acridine, reference compound]", "values": [{"measurement": "Ames TA1537 −S9 (Mean revertants/well per title)", "setting": "S. typhimurium TA1537; −S9, positive control 9-amino-acridine 1.56", "result": 8.4}]}
{"smiles": "CN(C)CCN(C)CCc1ccc(Cl)c(Cl)c1", "note": "[BD-1047]", "values": [{"measurement": "effect on EAE development, alone", "setting": "[1]", "result": "no significant effect"}]}
{"smiles": "O=P1(N(CCCl)CCCl)NCCCO1", "note": "(centres unmarked) [Cyclophosphamide]", "values": [{"measurement": "MN/2 × 10^3 Cells", "setting": "TK6 cells", "result": 35.5}, {"measurement": "RS (%)", "setting": "TK6 cells", "result": 88.3, "unit": "%"}]}
{"smiles": "CCCN(CCC)CCc1ccc(OC)c(OCCc2ccccc2)c1", "note": "[NE-100, reference compound]", "values": [{"measurement": "effect on S1R–BiP association", "setting": "S1R–BiP complex", "result": "no effect"}, {"measurement": "effect by itself in Y-maze", "setting": "[2]", "result": "devoid of any effect"}, {"measurement": "effect by itself in passive avoidance", "setting": "[3]", "result": "devoid of any effect"}]}
{"smiles": "O=C(OCCN1CCOCC1)C1(c2ccccc2)CCCCC1", "note": "[PRE-084, reference compound]", "values": [{"measurement": "effect on S1R–BiP association", "setting": "S1R–BiP complex", "result": "significantly causes the dissociation"}, {"measurement": "effect on S1R–BiP dissociation in presence of NE-100", "setting": "S1R–BiP complex; co-treatment with NE-100 (10 µM)", "result": "blocks"}]}
{"smiles": "C=C[C@H]1C[N@@]2CC[C@H]1C[C@@H]2[C@@H](O)c1ccnc2ccc(OC)cc12", "note": "[Quinidine, reference compound]", "values": [{"measurement": "QT interval, conclusion", "setting": "QT interval; 10 mg/kg and 100 mg/kg i.p., 6 to 10 min after injection", "result": "dose-dependently prolonged the QT interval"}, {"measurement": "QT Interval Basal", "setting": "QT interval; 10.0 mg/kg i.p. group", "result": "46 ± 2"}, {"measurement": "QT Interval 3 min", "setting": "QT interval; 10.0 mg/kg i.p.", "result": "50 ± 2"}, {"measurement": "QT Interval 6 min", "setting": "QT interval; 10.0 mg/kg i.p.", "result": "64 ± 6"}, {"measurement": "QT Interval 10 min", "setting": "QT interval; 10.0 mg/kg i.p.", "result": "65 ± 5"}, {"measurement": "QT Interval Basal", "setting": "QT interval; 100.0 mg/kg i.p. group", "result": "47 ± 4"}, {"measurement": "QT Interval 3 min", "setting": "QT interval; 100.0 mg/kg i.p.", "result": "58 ± 3"}, {"measurement": "QT Interval 6 min", "setting": "QT interval; 100.0 mg/kg i.p.", "result": "84 ± 7"}, {"measurement": "QT Interval 10 min", "setting": "QT interval; 100.0 mg/kg i.p.", "result": "76 ± 4"}]}
